We go through three compounds from publication PMC9039011, “Novel β-Cyclodextrin-Based Heptavalent Glycyrrhetinic Acid Conjugates: Synthesis, Characterization, and Anti-Influenza Activity” (Frontiers in Chemistry, 2022).

The nature of data set [1]: Cytotoxicity assay (CellTiter-Glo cell viability). The following applies: dog. (ATP-based viability assays read luminescence as a measure of living cells.)
A further data set deals with MDCK cells. Description: Cytotoxicity assay (CellTiter-Glo cell viability). The following applies: dose-dependent, 10 and 25 μM.
A further data set has as its target HA. Details: method as in Sauter et al., 1989. The following applies: monovalent interaction; ref Sauter et al., 1989; read-out: dissociation constant (KD); cited from earlier work.

Compound `CC1(C)[C@@H](O)CC[C@]2(C)[C@H]3C(=O)C=C4[C@@H]5C[C@@](C)(C(=O)O)CC[C@]5(C)CC[C@@]4(C)[C@]3(C)CC[C@@H]12` [Compound 2, glycyrrhetinic acid] showed a CC50 at 48 h in data set [1] (MDCK cells) of 85 ± 6.8 µM. The compound further returned a viability at 48 h, 25 µM in data set [1] (MDCK cells (uninfected)) of 82.8%. As to `CC(=O)O[C@H]1C(=O)[C@@]2(C)[C@H]([C@H](OC(=O)c3ccccc3)[C@]3(O)C[C@H](OC(=O)[C@H](O)[C@@H](NC(=O)c4ccccc4)c4ccccc4)C(C)=C1C3(C)C)[C@]1(OC(C)=O)CO[C@@H]1C[C@@H]2O` [PTX, paclitaxel], the “viability of MDCK cells (words, positive control)” value in the data set with MDCK cells is on record as “decrease in the viability”. As for `CC(=O)N[C@H]1[C@H]([C@H](O)[C@H](O)CO)OC(O)(C(=O)O)C[C@@H]1O` (stereo partly shown) [sialic acid], the Kd on HA is roughly 2000 µM.

A word on the CC50: it is the concentration at which the toxic effect on the cells reaches its halfway point. A higher CC50 goes with better tolerance by the cells. One may read the viability as the share of living cells, or the viability signal relative to a control. A high value points to less harm to the cells. For orientation: Kd means the constant that tells how readily two partners part at equilibrium.
